# B1: B. thuringiensis israelensis ATCC35646: crude enzyme solution with IDO from B. thuringiensis israelensis ATCC 35646, SEQ ID NO: 8 (protein, listed as Bacillus thuringiensis)
# chain: KMSGFSIEEKVHEFESKGFLEISNEIFLQEEENHSLLTQAQLDYYNLEDDAYGECRARSYSRYIKYVDSPDYILDNSNDYFQSKEYNYDDGGKVRQFNSINDSFLCNPLIQNIVHFDTEFAFKTNIIDKSKDLIIGLHQVRYKATKERPSFSSPIWLHKDDEPVVFLHLMNLSNTAIGGDNLIANSPREINQFISLKEPLETLVFGQKVFHAVTPLGTECSTEAFRDILLVTFSYKETK
# B2: B. weihenstephanensis KBAB4: crude enzyme solution of E. coli expressing ido gene from B. weihenstephanensis KBAB4, SEQ ID NO: 21 (protein, listed as Bacillus weihenstephanensis)
# chain: MLTTVSNKTSSFDVEQKVHEFESNGYIQIFNDIFLQDQEDQALLTKAQLDYYSLQNDAYGECRARAYSRYIKYAGSSDYVLDTDNGYFQSEEYNYDDGGKIRNFNSITDEFLHNSLIEKIVRFDSEFASNTNILDTSKDLVIGLHQVRYKATRENPSFSSPIWLHKDDEPIVFLHLMNLSNTALGGDNLIANSPREINKLISLKDPLETLVFGQKVFHAVTPLGTECNTEALRDILLVTFSYKEPK
# B3: B. thuringiensis AKU238: crude enzyme solution of E. coli expressing ido gene from B. thuringiensis AKU238, SEQ ID NO: 17 (protein, listed as Bacillus thuringiensis)
# chain: MEVFIMTFVLSKMSGFSIEEKVHEFESKGFLEISNEIFLQEEENHRLLTQAQLDYYNLEDDAYGECRARSYSRYIKYVDSPDYILDNSNDYFQSKEYNYDDGGKVRQFNSINDSFLCNPLIQNIVRFDTEFAFKTNIIDTSKDLIIGLHQVRYKATKERPSFSSPIWLHKDDEPVVFLHLMNLSNTAIGGDNLIANSPREINQFISLKEPLETLVFGQKVFHAVTPLGTECSTEAFRDILLVTFSYKETK
# How the values were obtained:
# [1] = tested on: strain 2-e-2; experiment: Effect of addition of cofactors on AMKP production in culture of strain 2-e-2; type: cell-based, Bacillus thuringiensis; conditions: culture supernatant; 30° C., 22 hours; control 1.34
# Method: The possibility of molecular oxygen uptake by hydroxylation was considered as a possible mechanism for the production of AMKP. Accordingly, the production of AMKP was analyzed when NAD(P)H, or Fe^2+, 2-oxoglutaric acid and ascorbic acid, were added during the culture of the 2-e-2 strain. NAD(P)H is a cofactor of monooxygenases and Fe^2+, 2-oxoglutaric acid and ascorbic acid are cofactors of dioxygenases.
# The culture medium used in the previous screening was used as a control, and the production of AMKP was compared among cultures containing the cofactors as shown in Table 3. The culture temperature was 30° C., and the culture time was 22 hours. The concentration of AMKP in the culture supernatants was measured.
# [2] = biological target: T1, enzyme in 2-e-2 cell lysate (Bacillus thuringiensis, UniProt E2GIN1); experiment: Effect of inhibitors on 4-hydroxyisoleucine production in the 2-e-2 cell lysate; type: biochemical; conditions: 10 mM inhibitor, pH 6, 30° C., 1 hour
# T1 construct: the collected and washed 2-e-2 cells were disrupted using a mortar; endogenous in cells; host or cells: Bacillus thuringiensis 2-e-2 cell lysate
# T1 sequence (E2GIN1 2-240): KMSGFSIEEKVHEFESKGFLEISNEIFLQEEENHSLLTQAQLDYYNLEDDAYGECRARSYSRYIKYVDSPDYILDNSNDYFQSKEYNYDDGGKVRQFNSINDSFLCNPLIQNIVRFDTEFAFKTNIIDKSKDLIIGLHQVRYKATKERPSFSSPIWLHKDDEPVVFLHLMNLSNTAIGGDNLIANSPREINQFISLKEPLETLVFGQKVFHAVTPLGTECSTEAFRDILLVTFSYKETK
# Method: (§1) The cells were cultured in the AMKP medium until OD660 of 3.2 was achieved, then the collected and washed 2-e-2 cells were disrupted using a mortar, and suspended in a buffer (50 mM HEPES (pH 7.0), 10% of glycerol, Complete Mini (Roche)) until a suspension (lysate) is obtained having a protein concentration of about 10 mg/ml including centrifugation precipitates. The centrifugation precipitates were finally suspended in physiological saline of the same volume as the cell lysate. These were each mixed with an equal volume of a 2× dioxygenase reaction mixture (10 mM Ile, […], 10 mM 2-oxoglutaric acid, 10 mM ascorbic acid, 100 mM HEPES (pH 7.0)), and the reaction proceeded at 30° C. for 1 hour. Similarly, resting cells used for the preparation of the cell lysate were washed, and suspended in physiological saline at a concentration 10 times that in the culture broth, the suspension was mixed with an equal volume of the 2× dioxygenase reaction mixture, and the reaction proceeded.
# By using a cell lysate prepared from 2-e-2 cells at OD660 of 7 according to the method described in <5>, the effects of inhibitors on the 4-hydroxyisoleucine production were examined. […] The dioxygenase reaction mixture contained 5 mM Ile, 5 mM Fe^2+, 5 mM 2-oxoglutaric acid, 5 mM ascorbic acid, and 100 mM HEPES (pH 6), the reaction temperature was 30° C., and the reaction time was 1 hour. The amount of 4-hydroxyisoleucine which was produced when 10 mM of each inhibitor (EDTA, Cu^2+, Zn^2+) was added to the reaction system was measured. 4-Hydroxyisoleucine was analyzed by the method described in <2>. The isoleucine hydroxylation activity was inhibited by the inhibitors.
# [3] = biological target: T2, L-Ile hydroxylase (Bacillus thuringiensis, UniProt E2GIN1); experiment: Effects of inhibitors on 4-hydroxyisoleucine production by purified L-Ile hydroxylase; type: biochemical; conditions: 10 mM inhibitor; 4-hydroxyisoleucine production with no inhibitor = 100%; pH 6, 30° C., 1 hour
# T2 construct: made in house; host or cells: Bacillus thuringiensis 2-e-2 (natural producer; enzyme purified by chromatography, not recombinant)
# T2 sequence (E2GIN1 2-240): as above
# Method: Each fraction was reacted using an Ile hydroxylation activity reaction mixture (100 mM HEPES (pH 6.0), 5 mM L-Ile, 5 mM Fe^2+, 5 mM 2-oxoglutaric acid, 5 mM ascorbic acid at final concentrations) at 30° C. for 30 minutes. The enzyme was inactivated at 100° C., and then the amount of 4-hydroxyisoleucine was quantified by the aforementioned AMKP and HIL separation and measurement method. The 4-hydroxyisoleucine referred to in the subsequent analysis indicates a substance that is substantially composed of the isomer having the same retention time as that of the naturally occurring 4-hydroxyisoleucine. The enzyme activity that produces 1 nmol of HIL per minute was defined as 1 U.
# By using L-Ile hydroxylase prepared as described in Example 2, the effect of inhibitors on the production of 4-hydroxyisoleucine were examined. The enzymatic reaction solution contained 5 mM Ile, 5 mM Fe^2+, 5 mM 2-oxoglutaric acid, 5 mM ascorbic acid, and 100 mM HEPES (pH 6), the reaction temperature was 30° C., and the reaction time was 1 hour. The amount of 4-hydroxyisoleucine produced when 10 mM of each inhibitor (EDTA, Cu^2+, Zn^2+) was added to the reaction system was measured. These values are relative to the 4-hydroxyisoleucine production observed with no inhibitor, which was set as 100%. The isoleucine hydroxylation activity was lost in the presence of the inhibitors.
# [4] = biological target: T2, L-Ile hydroxylase; experiment: Substrate reaction characteristics of purified L-Ile hydroxylase; type: biochemical; conditions: 5 mM amino acid; purified enzyme; pH 6, 30° C., 1 hour; HPLC
# Method: By using L-Ile hydroxylase prepared as described in Example 2, the reaction characteristics for various amino acids were evaluated. The enzyme solution and the reaction mixture were mixed, and then the reaction proceeded at 30° C. for 1 hour, and the production of new substances was evaluated by HPLC analysis. The enzymatic reaction solution contained 5 mM amino acid, 5 mM Fe^2+, 5 mM 2-oxoglutaric acid, 5 mM ascorbic acid, and 100 mM HEPES (pH 6). In addition to L-isoleucine, the amino acids D-isoleucine, L-leucine, L-valine, L-glutamic acid, and L-lysine were also individually evaluated. The produced 4-hydroxyisoleucine was analyzed as in Example 1. Like when using a cell lysate, production of a new substance could not be confirmed for amino acids other than L-isoleucine.
# [5] = biological target: T1, enzyme in 2-e-2 cell lysate; experiment: Substrate reaction characteristics of enzyme in 2-e-2 cell lysate; type: biochemical; conditions: 5 mM amino acid, pH 7, 30° C., 1 hour, TLC or amino acid analysis
# Method: as §1
# By using a cell lysate prepared from 2-e-2 cells at OD660 of 7 according to the method described in <5>, the reaction characteristics for various amino acids were evaluated. The cell lysate and a substrate solution were mixed, then the reaction proceeded at 30° C. for 1 hour, and the production of new substances was evaluated by TLC or amino acid analysis. The substrate reaction mixture contained 5 mM amino acid, 5 mM Fe^2+, 5 mM 2-oxoglutaric acid, 5 mM ascorbic acid, and 100 mM HEPES (pH 7). In addition to L-isoleucine, the amino acids L-leucine, L-valine, L-glutamic acid, and L-lysine were each individually evaluated. The 4-hydroxyisoleucine which was produced was analyzed by the method described in Example 1. Production of amino acids other than L-isoleucine was not observed.
# [6] = biological target: T1, enzyme in 2-e-2 cell lysate; experiment: Effects of enzyme cofactors on 4-hydroxyisoleucine production with 2-e-2 cell lysate; type: biochemical; conditions: Lysate + 5 mM Ile + 5 mM cofactor; 50 mM HEPES pH 7
# Method: as §1
# By using a cell lysate of the 2-e-2 cells in the logarithmic growth phase, the effects of cofactors on the 4-hydroxyisoleucine production reaction by hydroxylation of Ile were examined. A 50 mM HEPES (pH 7) reaction mixture was used containing final concentrations of 5 mM Ile and 5 mM of one of various cofactors with a cell lysate of the 2-e-2 cells (lysate) in the logarithmic growth phase prepared by the method described in <5> above, and the amount of 4-hydroxyisoleucine produced was measured.
# [7] = biological target: T2, L-Ile hydroxylase; experiment: Effects of addition of cofactors on 4-hydroxyisoleucine production with purified enzyme; type: biochemical; conditions: purified enzyme + 5 mM L-Ile + 5 mM cofactor; 100 mM HEPES pH 6
# Text: The effects of cofactors on the production of 4-hydroxyisoleucine by hydroxylation of Ile were examined by using the purified enzyme.
# [8] = tested on: dioxygenase activity in fenugreek extract; conditions: cited from earlier work
# [9] = biological target: IDO(Lys,23) (Bacillus thuringiensis, UniProt E2GIN1)
# Chain of IDO(Lys,23) (E2GIN1 2-240): as above
# [10] = Production of HIL from Ile with crude enzyme solution of E. coli expressing ido genes; type: biochemical, Escherichia coli; conditions: 28° C., 3 hours, control (pET21b) 11
# Method: The plasmid expressing the ido gene from B. cereus ATCC 14579, B. thuringiensis AKU238, or B. weihenstephanensis KBAB4, which was constructed in Example 8, was introduced into E. coli Rosetta2 (DE3), and the transformants were cultivated with shaking in LB medium supplemented with 50 μg/ml ampicilin (preculture). By seeding the preculture broth in 50 ml LB medium at 1%, the main culture was carried out at 37° C. 2 hours after the start of the cultivation, IPTG was added to a final concentration of 1 mM, and the cultivation was carried out for an additional 3 hours. After completion of the cultivation, the cells were harvested, washed, suspended in 1 ml of 20 mM Tris-HCl (pH 7.6), and disrupted with a sonicator (INSONATOR 201M, KUBOTA). The lysate was centrifuged at 15000 rpm for 10 minutes, and the supernatant was used as a crude enzyme solution.
# By using the crude enzyme solution prepared in (1), the conversion of Ile to HIL was measured. The reaction mixture is described below. The reaction mixture was reacted with shaking (300 rpm) at 28° C. for 3 hours, and then the amount of HIL produced was determined by HPLC.
molecule,measurement,setting,value
NAD(P)H,AMKP concentration,[1],1.58 mM
[Zn+2] [Zn^2+],isoleucine hydroxylation activity in presence of inhibitor,[2],inhibited
same,Relative activity (%),[3],0%
"N[C@@H](CCC(=O)O)C(=O)O [L-Glutamic acid, L-glutamic acid]",Product (reactivity for each amino acid),[4],None
same,Product (reactivity for various amino acids),[5],None
"CC(C)[C@H](N)C(=O)O [L-Valine, L-valine]",Product (reactivity for each amino acid),[4],None
same,Product (reactivity for various amino acids),[5],None
"O=C(O)CCC(=O)C(=O)O [α-KG, 2-oxoglutaric acid]",HIL production,[6],0.00 mM
same,HIL,[7],0.00 mM
"CC[C@@H](C)[C@@H](N)C(=O)O [D-Isoleucine, D-isoleucine]",Product (reactivity for each amino acid),[4],None
"CC[C@H](C)[C@H](N)C(=O)O [L-Isoleucine, L-isoleucine]",Product (reactivity for each amino acid),[4],Produced (HIL)
same,isoleucine concentration that inhibits the activity of the enzyme,[8],≥ 20 mM
same,Product (reactivity for various amino acids),[5],Produced (HIL)
O=C(O)CN(CCN(CC(=O)O)CC(=O)O)CC(=O)O [EDTA],isoleucine hydroxylation activity in presence of inhibitor,[2],inhibited
same,Relative activity (%),[3],0%
same,"activity of IDO(Lys,23) in the presence of the substance",[9],completely blocked
[Fe+2] [Fe^2+],HIL production,[6],0.00 mM
same,AMKP concentration,[1],2.53 mM
same,HIL,[7],0.00 mM
[Cu+2] [Cu^2+],isoleucine hydroxylation activity in presence of inhibitor,[2],inhibited
same,Relative activity (%),[3],0%
"CC(C)C[C@H](N)C(=O)O [L-Leucine, L-leucine]",Product (reactivity for each amino acid),[4],None
same,Product (reactivity for various amino acids),[5],None
"O=C1O[C@H]([C@@H](O)CO)C(O)=C1O [Ascorbate, ascorbic acid]",HIL production,[6],0.00 mM
same,HIL,[7],0.00 mM
"NCCCC[C@H](N)C(=O)O [L-Lysine, L-lysine]",Product (reactivity for each amino acid),[4],None
same,Product (reactivity for various amino acids),[5],None
B1,"Amount of HIL produced from Ile, HIL",[10],2150 µM
B2,"Amount of HIL produced from Ile, HIL",[10],3116 µM
B3,"Amount of HIL produced from Ile, HIL",[10],2016 µM
